Experimental data from US7407794B2, “Biological control of plant diseases” (The Horticulture and Food Research Institute of New Zealand …, priority 2001, dated 2008).

System: Botrytis cinerea
Test: Necrotic leaf disc bioassay with interrupted wet period (laboratory)
Format: cell-based
Conditions: Table 2, necrotic kiwifruit leaf tissues, repeat bioassay
Method: Discs (dia. 21 mm) were cut from mature unsprayed grape or kiwifruit leaves selected at random and placed between sheets of cardboard. The discs were gently dried at 40° C. for approximately 9 hours and then washed under running water for 10 minutes to remove any soluble nutrients. The leaf discs were then blot dried once more on sterile paper towels, dried at 40° C. for 6 hours, then sealed in plastic specimen jars, prior to sterilization by gamma-irradiation (4Mrad).
Isolates were maintained on oatmeal agar (30 g finely ground oatmeal plus 20 g agar per litre of water) and incubated for 2 to 4 weeks at 20° C. illuminated according to a 12 hours day/night cycle. Fungal propagules were washed from the sporulating agar plates using sterile 0.01% (v/v) TWEEN®80 (polyoxyethylenesorbitan monooleate) in distilled water. […]
High humidity incubation was interrupted by transferring the leaf disks from the humidity chambers to open petri dishes containing 2 layers of sterile dry (Whatman) filter disks. […] The area of leaf disk tissue with B. cinerea sporulation was assessed visually. […]
Prior to analysis of variance, all data were arcsin transformed using an angular transformation to stabilise the variance and LSD values were calculated for purposes of mean separation […]

## CC(C)NC(=O)N1CC(=O)N(c2cc(Cl)cc(Cl)c2)C1=O [iprodione]
  % coverage of necrotic leaf tissue by B. cinerea conidiophores: 20%
  Antagonist efficacy, percentage reduction of B. cinerea conidiophores compared to the B. cinerea control treatment: 20%
